Experimental findings from publication PMC5241706, “Biochemical and Structural Characterization of Selective Allosteric Inhibitors of the Plasmodium falciparum Drug Target, Prolyl-tRNA-synthetase” (ACS Infectious Diseases, 2016) are described below.

Like-named read-outs stand apart in the source and are kept apart here.

Test [1] concerns the target T1, PfProRS (Plasmodium falciparum, UniProt Q8I5R7).
T1 construct: B2, AA7–746 (minus 6 amino acids, or 99% of the ORF); made in house; host or cells: E. coli BL21(DE3)R3 Rosetta Oxford
Put plainly: ATP consumption assay with proline or ATP varied (competition). It counts as biochemical. The settings on record: from IC50 vs [ATP] fit.

Test [2] relates to Plasmodium falciparum strain 3D7. Put plainly: Plasmodium falciparum growth inhibition, SYBR green fluorescence. It counts as cell-based.
In test [3] the target is T1, PfProRS. The test is described as follows: biochemical. It counts as biochemical. The settings on record: for PfProRS activity in words: SAR text to Table 1; for IC50: read-out: Pf ProRS IC50.
The subject of test [4] is isolated 3D7 trophozoites (pHi). Put plainly: pH assay, BCECF-loaded isolated trophozoites. Conditions: TCMDC-124506 5 μM; KAE609 50 nM.
The target in test [5] is T1, PfProRS. The test is described as follows: aminoacylation assay ([3H]-L-proline incorporation into tRNA). It is filed as biochemical.
Test [6] deals with T1, PfProRS. The test is described as follows: luciferase ATP depletion assay, HTS format. It is filed as biochemical. The settings on record: read-out: Percentage inhibition Pf ProRS.
Test [7] deals with T2, HsProRS (Homo sapiens, UniProt P07814).
T2 construct: made in house
T2 sequence (P07814 1007-1512 limits assumed): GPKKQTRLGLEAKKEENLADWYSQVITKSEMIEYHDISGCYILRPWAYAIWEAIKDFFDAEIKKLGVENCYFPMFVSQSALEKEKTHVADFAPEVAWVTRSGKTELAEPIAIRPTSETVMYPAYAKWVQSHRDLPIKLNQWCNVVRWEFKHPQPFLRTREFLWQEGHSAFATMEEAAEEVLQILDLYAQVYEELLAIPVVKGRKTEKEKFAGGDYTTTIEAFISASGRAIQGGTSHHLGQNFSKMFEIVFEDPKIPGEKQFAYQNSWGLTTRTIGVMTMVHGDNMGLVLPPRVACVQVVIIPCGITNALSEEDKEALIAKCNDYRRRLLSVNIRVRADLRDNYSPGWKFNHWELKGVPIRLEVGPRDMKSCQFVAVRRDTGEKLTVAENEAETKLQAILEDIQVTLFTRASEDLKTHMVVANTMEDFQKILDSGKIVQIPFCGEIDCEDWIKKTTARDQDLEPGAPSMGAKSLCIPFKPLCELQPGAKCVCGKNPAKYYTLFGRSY
The test is described as follows: luciferase ATP depletion assay, counter-screen. The settings on record: read-out: Percentage inhibition Hs ProRS. It counts as biochemical. (Counterscreens check selectivity or assay interference.)

[8] abbreviates: 3D7, growth inhibition, read-out: Pf (3D7) EC50.

T1 sequence (Q8I5R7 7-746): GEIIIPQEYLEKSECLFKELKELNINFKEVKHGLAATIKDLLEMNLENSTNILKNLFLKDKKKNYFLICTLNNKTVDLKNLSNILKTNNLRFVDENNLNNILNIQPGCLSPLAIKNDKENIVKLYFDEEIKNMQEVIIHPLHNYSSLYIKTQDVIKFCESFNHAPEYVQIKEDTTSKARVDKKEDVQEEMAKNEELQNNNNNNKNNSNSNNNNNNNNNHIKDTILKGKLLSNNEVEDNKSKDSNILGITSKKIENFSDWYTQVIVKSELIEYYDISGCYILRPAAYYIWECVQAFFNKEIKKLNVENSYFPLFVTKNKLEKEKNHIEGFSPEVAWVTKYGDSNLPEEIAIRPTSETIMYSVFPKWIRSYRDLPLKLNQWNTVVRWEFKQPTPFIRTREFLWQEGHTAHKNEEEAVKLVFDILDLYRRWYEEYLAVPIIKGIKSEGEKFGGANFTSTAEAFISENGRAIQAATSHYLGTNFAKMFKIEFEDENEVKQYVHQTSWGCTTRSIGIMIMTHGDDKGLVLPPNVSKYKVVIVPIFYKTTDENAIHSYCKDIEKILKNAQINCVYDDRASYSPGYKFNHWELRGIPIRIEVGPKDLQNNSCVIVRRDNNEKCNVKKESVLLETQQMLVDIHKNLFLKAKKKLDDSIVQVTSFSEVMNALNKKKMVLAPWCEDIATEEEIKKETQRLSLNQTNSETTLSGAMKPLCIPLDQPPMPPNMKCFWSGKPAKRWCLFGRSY

As usually defined, the Km is the concentration of substrate that gives half-maximal velocity. As for `Nc1ncnc2c1ncn2[C@@H]1O[C@H](COP(=O)(O)OP(=O)(O)OP(=O)(O)O)[C@@H](O)[C@H]1O` [ATP], in test [1], the Km is 6.51 ± 1.84 µM.
Regarding `Cn1nc(C(F)(F)F)c(-c2ccc(F)cc2)c1N` [Compound 2], in test [2] (setting [8]), the EC50 was 5 µM. Also, in test [3], the “PfProRS activity in words” value is “inactive” and the IC50 is above 50 µM.
As for `Cn1nc(C(F)(F)F)c(-c2ccc(F)cc2)c1NC(=O)Nc1ccc(F)cc1F` [Compound 3], the EC50 in test [2] (setting [8]) turned out to be 0.7 µM. The IC50 in test [3] is 2.5 µM.
For `Cn1nc(C(F)(F)F)c(-c2ccc(F)cc2)c1NC(=O)Nc1cccc(F)c1` [Compound 4], in that order: 0.35 µM and 8 µM.
Consider `COc1ccc(NC(=O)Nc2c(-c3ccc(F)cc3)c(C(F)(F)F)nn2C)cc1` [Compound 5], for which, in test [2] (setting [8]), the EC50 was above 50 µM. Also, the IC50 in test [3] is above 50 µM.
For the compound `Cn1nc(C(F)(F)F)c(-c2ccc(F)cc2)c1NC(=O)Nc1ccnc(N2CCOCC2)c1` [Compound 6], the EC50 in test [2] (setting [8]) was above 50 µM. In test [3], the IC50 is above 50 µM.
Take `O=C(Nc1ccc(F)cc1)Nc1[nH]nc(C(F)(F)F)c1-c1ccc(F)cc1` [Compound 7]: the EC50 in test [2] (setting [8]) was above 50 µM. In addition, in test [3], the “PfProRS activity in words” value is “inactive” and the IC50 is above 50 µM.
As for `O=C(Nc1ccc(F)cc1)Nc1c(-c2ccc(F)cc2)c(C(F)(F)F)nn1CCO` [Compound 8], the EC50 in test [2] (setting [8]) is above 50 µM. For the same compound, the IC50 in test [3] is above 50 µM.
For `NC(=O)Cn1nc(C(F)(F)F)c(-c2ccc(F)cc2)c1NC(=O)Nc1ccc(F)cc1` [Compound 9], in test [2] (setting [8]), the EC50 is above 50 µM. Also, in test [3], the IC50 is above 50 µM.
For `Cn1nc(C(F)(F)F)cc1NC(=O)Nc1ccc(F)cc1` [Compound 10, 1-(4-fluorophenyl)-3-(1-methyl-3-(trifluoromethyl)-1H-pyrazol-5-yl)urea], in test [2] (setting [8]), the EC50 is 46 µM. Further, in test [3], the “PfProRS activity in words” value is “inactive” and the IC50 was above 50 µM.
For `Cn1nc(C(F)(F)F)c(Br)c1NC(=O)Nc1ccc(F)cc1` [Compound 11, 1-[4-bromo-2-methyl-5-(trifluoromethyl)pyrazol-3-yl]-3-(4-fluorophenyl)urea], in that order: 16 µM, “inactive” and above 50 µM.
For `Cn1nc(C(F)(F)F)c(-c2ccccc2CO)c1NC(=O)Nc1ccc(F)cc1` [Compound 13], the EC50 in test [2] (setting [8]) stood at 8 µM. Further, in test [3], the “drop in PfProRS potency versus hit compound” value is 4 fold and the IC50 came to 20 µM.
Consider `Cn1nc(C(F)(F)F)c(-c2ccccc2CCO)c1NC(=O)Nc1ccc(F)cc1` [Compound 14], for which the IC50 in test [3] was above 50 µM.
Take `Cn1nc(C(F)(F)F)c(-c2cccc(CCO)c2)c1NC(=O)Nc1ccc(F)cc1` [Compound 15]: the EC50 in test [2] (setting [8]) stood at 4 µM. Moreover, in test [3], the IC50 amounted to 13 µM.
Turning to `Cn1nc(C(F)(F)F)c(-c2cccc(CNS(C)(=O)=O)c2)c1NC(=O)Nc1ccc(F)cc1` [Compound 16], the EC50 in test [2] (setting [8]) was 10 µM. In addition, in test [3], the “PfProRS activity in words” value is “inactive” and the IC50 is above 50 µM.
On to `Cn1nc(C(F)(F)F)c(-c2cccc(C(F)(F)F)c2)c1NC(=O)Nc1ccc(F)cc1` [Compound 17], for which, in test [2] (setting [8]), the EC50 is 0.9 µM. Also, the IC50 in test [3] was above 50 µM.
Take `Cn1ncc(-c2ccc(F)cc2)c1NC(=O)Nc1ccc(F)cc1` [Compound 18]: the EC50 in test [2] (setting [8]) was 27 µM. In test [3], the IC50 is above 50 µM.
For `Cn1nc(CCO)c(-c2ccc(F)cc2)c1NC(=O)Nc1ccc(F)cc1` [Compound 19], in that order: 20 µM and 18 µM.
Regarding `Cn1nc(C(N)=O)c(-c2ccc(F)cc2)c1NC(=O)Nc1ccc(F)cc1` [Compound 20], the EC50 in test [2] (setting [8]) was above 50 µM. The IC50 in test [3] is 14 µM.
Take `Cn1nc(CCC(N)=O)c(-c2ccc(F)cc2)c1NC(=O)Nc1ccc(F)cc1` [Compound 21]: the EC50 in test [2] (setting [8]) is above 50 µM. Moreover, in test [3], the IC50 was 8 µM.
For `Cn1nc(C#N)c(-c2ccc(F)cc2)c1NC(=O)Nc1ccc(F)cc1` [Compound 22], in that order: 0.6 µM and 5 µM.
For `Cn1nc(CC#N)c(-c2ccc(F)cc2)c1NC(=O)Nc1ccc(F)cc1` [Compound 23], in that order: 4 µM and 6 µM.
`Cn1nc(CCC#N)c(-c2ccc(F)cc2)c1NC(=O)Nc1ccc(F)cc1` [Compound 24]: the EC50 in test [2] (setting [8]) was 6 µM. In addition, in test [3], the IC50 was 9 µM.
For `CN(C)CCc1nn(C)c(NC(=O)Nc2ccc(F)cc2)c1-c1ccc(F)cc1` [Compound 25], in that order: above 50 µM and 4 µM.
`Cn1nc(CCN2CCOCC2)c(-c2ccc(F)cc2)c1NC(=O)Nc1ccc(F)cc1` [Compound 26]: the EC50 in test [2] (setting [8]) is 10 µM. For the same compound, the IC50 in test [3] was 3 µM.
For the compound `C[C@H]1Cc2c([nH]c3cc(Cl)c(F)cc23)[C@@]2(N1)C(=O)Nc1ccc(Cl)cc12` [KAE609, reference compound], in test [4], the “effect on parasite cytosolic pH (pHi)” value is given as “caused an increase in pHi”.
`OC(c1cc(C(F)(F)F)nc2c(C(F)(F)F)cccc12)C1CCCCN1` (centres unmarked) [Mefloquine, reference compound]: the EC50 in test [2] (P. falciparum 3D7, read-out: potency range (drug control)) is 0.03 to 0.06 µM.
For the compound `CC(C)(C)OC(=O)N1CCC[C@@H](O)[C@@H]1CC(=O)Cn1cnc2cc(Br)c(Cl)cc2c1=O` [N-Boc-halofuginone], in test [5] (Hill slope = 1, Figure S2, read-out: IC50, [3H]-L-proline aminoacylation incorporation assay), the IC50 is above 3 µM. Further, the inhibition of aminoacylation in test [5] (at the highest concentrations tested) is reported as below 20%.
Broadly, the inhibition is the relative decrease from the control value, in per cent. With `CCCc1nc2c(C)cc(-c3nc4ccccc4n3C)cc2n1Cc1ccc(-c2ccccc2C(=O)O)cc1` [telmisartan], the inhibition at 0.73 µM is -0.36% in test [6] and 0.44% in test [7] (at 0.73 μM). In addition, the inhibition at 1.46 µM is -0.06% in test [6] and 0.05% in test [7] (at 1.46 μM (750 μM series)). Moreover, the figures for the inhibition at 2.93 µM in test [6] and in test [7] (at 2.93 μM) were -0.17% and 0.04%, respectively. The inhibition at 5.86 µM in test [6] is -0.08%; in test [7] (at 5.86 μM), -0.1%. The values for the inhibition at 11.72 µM in test [6] and in test [7] (at 11.72 μM) were 2.19% and 0.01%, respectively. In addition, the figures for the inhibition at 23.44 µM in test [6] and in test [7] (at 23.44 μM) were 3.94% and 0%, respectively. The inhibition at 46.88 µM in test [6] was 13.4%; in test [7] (at 46.88 μM), -0.02%. Further, the inhibition at 93.75 µM is 48.8% in test [6] and 0.37% in test [7] (at 93.75 μM). Moreover, the inhibition at 187.5 µM came out at 80.8% in test [6] and 4.23% in test [7] (at 187.50 μM). Besides, the inhibition at 375 µM in test [6] came to 15.5%; in test [7] (at 375 μM), 0.25%. The inhibition at 750 µM was determined as 11.8% in test [6] and 0.58% in test [7] (at 750 μM).
